Reference: ChEMBL document CHEMBL1201862, “PubChem BioAssay data set” (2004)
The source made the active and inactive calls.

How the values were obtained:
[1] = target: 5-hydroxytryptamine receptor 2A (Mus musculus, UniProt P35363); type: functional, cell-based;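 further: CHO-K1 cells with tagged receptor and beta-arrestin; agonist potency measured as compound-induced activation of the receptor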
Mu-type opioid receptor = Mu-type opioid receptor (Homo sapiens, UniProt P35372); type: functional, cell-based;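 further: U2OS cells with beta-arrestin recruitment to OPRM1 by beta-gal complementation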
[2] = microbe, parasite or virus in culture; type: functional; conditions: Mycobacterium tuberculosis
[3] = M. tuberculosis growth inhibition, HTS (AID 449762); type: functional
[4] = target: T1, Mannose-6-phosphate isomerase (Homo sapiens, UniProt P34949); experiment: human PMI inhibitors, high substrate, primary screen, biochemical, fluorescence intensity, high mannose 6-phosphate (AID 1220)
T1 sequence (P34949 whole entry): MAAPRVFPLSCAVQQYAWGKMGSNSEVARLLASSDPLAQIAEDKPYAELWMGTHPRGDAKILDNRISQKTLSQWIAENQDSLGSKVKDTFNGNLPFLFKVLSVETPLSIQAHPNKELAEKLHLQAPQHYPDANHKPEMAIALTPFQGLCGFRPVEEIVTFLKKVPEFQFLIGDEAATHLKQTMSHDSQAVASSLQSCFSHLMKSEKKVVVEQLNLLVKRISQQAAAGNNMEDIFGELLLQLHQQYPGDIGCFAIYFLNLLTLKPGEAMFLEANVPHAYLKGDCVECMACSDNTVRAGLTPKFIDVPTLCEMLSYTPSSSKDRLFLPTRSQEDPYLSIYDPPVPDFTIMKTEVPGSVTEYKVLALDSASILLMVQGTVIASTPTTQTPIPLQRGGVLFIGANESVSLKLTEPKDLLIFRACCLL

[5] = cytotoxicity in HPDE-C7 cells, cell-based, fluorescence, HTS (AID 430); type: functional; conditions: Homo sapiens
[6] = cytotoxicity in KRAS-transformed pancreatic duct cells, primary screen, cell-based, fluorescence, HTS (AID 431); type: functional; conditions: Homo sapiens;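 further: cell line used: HPDE-C7K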
H9c2 = experiment: cells; type: functional, cell-based; conditions: Rattus norvegicus, H9c2, Myocardium;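 further: confirmatory concentration-response retest of ultra-high-throughput screening hits for modulation of myocardial damage; cell death induced by hydrogen peroxide oxidative stress; compound pretreatment for 60 min then peroxide exposure for 2 h; potency is for protecting the cells against peroxide damage rather than for killing them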
[7] = HEp-2 cell cytotoxicity, dose response, cytotoxicity control for RSV inhibitor project, HTS (AID 2410); type: functional; conditions: human respiratory syncytial virus
cells [8] = experiment: cells
Genome polyprotein = Genome polyprotein (Hepatitis C virus, UniProt Q2Q167); experiment: HCV core protein dimerization inhibitors, dose response, biochemical, TR-FRET (AID 2159); design: species or system Hepacivirus hominis;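 further: blocks dimerization of HCV core protein measured by TR-FRET between tagged core106 pairs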
[9] = target: T2, Carboxy-terminal domain RNA polymerase II polypeptide A small phosphatase 1 (Homo sapiens, UniProt Q9GZU7); experiment: inhibitors of CTDSP1, concentration-response testing, biochemical assay, absorbance-based, actives from ultra-high-throughput screening (AID 540297); type: functional
T2 sequence (Q9GZU7 whole entry): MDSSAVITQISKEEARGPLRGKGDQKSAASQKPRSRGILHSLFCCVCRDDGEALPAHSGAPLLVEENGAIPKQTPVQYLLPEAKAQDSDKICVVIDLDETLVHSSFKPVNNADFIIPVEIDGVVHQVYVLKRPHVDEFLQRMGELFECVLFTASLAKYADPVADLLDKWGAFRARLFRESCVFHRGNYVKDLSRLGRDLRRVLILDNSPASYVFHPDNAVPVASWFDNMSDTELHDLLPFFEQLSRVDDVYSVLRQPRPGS

[10] = target: Induced myeloid leukemia cell differentiation protein Mcl-1 (Homo sapiens, UniProt Q07820); type: functional
Cytochrome P450 3A4 = Cytochrome P450 3A4 (Homo sapiens, UniProt P08684);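 further: CYP3A4 tested as one member of a cytochrome P450 panel screen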
Vero = experiment: host cell cytotoxicity of antiviral hits, dose response, cytotoxicity control for West Nile virus antiviral project, secondary assay (AID 1650); type: functional; conditions: Chlorocebus sabaeus
Cytochrome P450 2C19 = Cytochrome P450 2C19 (Homo sapiens, UniProt P33261); experiment: Cytochrome panel assay with activity outcomes. Panel member name: p450-cyp2c19 Compounds with AC50 equal or less than 10 uM are considered active; type: functional; conditions: read-out: AC50
cells [11] = experiment: cells; remark: listed apart in the source
[12] = inhibitors of intracellular T. cruzi replication, confirmation, NIH3T3 host cells, beta-gal luminescence (AID 2044); type: functional, cell-based;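 further: intracellular parasites grown in NIH/3T3 mouse fibroblasts as host cells; luminescent beta-galactosidase reporter signal from transgenic T. cruzi replicating inside host cells; inhibitors lower the luminescence signal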
[13] = cytotoxicity toward NIH3T3 fibroblasts, dose response, counter-screen, cell-based, ATP luminescence, mouse fibroblasts (AID 2010); type: functional;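 further: cells exposed to compound for about 90 hours before reading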
[14] = inhibitors of Bluetongue virus cytopathic effect, confirmation, arbovirus, BSR cells (AID 1250); type: functional;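 further: protection from viral cytopathic effect measured as cell viability by ATP luminescence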
[15] = inhibitors of Vif binding to APOBEC3G peptide, primary screen, biochemical, TR-FRET, GST-Vif 1-94, biotin-A3G peptide, dose response retest (AID 1117319); type: functional;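 further: TR-FRET signal of purified GST-Vif binding a biotinylated A3G peptide; inhibitors lower the FRET signal by blocking Vif and A3G binding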
Protein Tat = target: T3, Protein Tat (Human immunodeficiency virus type 1 group M subtype B (isolate HXB2)(HIV-1), UniProt P04608); type: functional;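 further: tat binding to TAR RNA read out by fluorescence polarization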
T3 sequence (P04608 whole entry): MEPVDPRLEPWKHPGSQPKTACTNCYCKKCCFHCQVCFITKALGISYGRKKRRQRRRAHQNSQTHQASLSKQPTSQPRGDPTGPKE

Mu-type opioid receptor, sequence (P35372 whole entry): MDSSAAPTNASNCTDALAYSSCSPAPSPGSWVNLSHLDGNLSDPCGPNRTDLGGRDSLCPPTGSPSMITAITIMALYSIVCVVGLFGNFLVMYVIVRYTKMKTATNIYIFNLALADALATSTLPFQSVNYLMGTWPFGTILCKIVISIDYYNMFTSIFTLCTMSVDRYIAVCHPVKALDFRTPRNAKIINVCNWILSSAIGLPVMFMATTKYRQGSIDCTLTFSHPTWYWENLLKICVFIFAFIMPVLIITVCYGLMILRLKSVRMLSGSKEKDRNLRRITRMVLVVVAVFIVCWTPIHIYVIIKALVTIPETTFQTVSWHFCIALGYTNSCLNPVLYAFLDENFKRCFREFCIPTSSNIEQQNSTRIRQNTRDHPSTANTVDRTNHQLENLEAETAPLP
Cytochrome P450 3A4, sequence (P08684 whole entry): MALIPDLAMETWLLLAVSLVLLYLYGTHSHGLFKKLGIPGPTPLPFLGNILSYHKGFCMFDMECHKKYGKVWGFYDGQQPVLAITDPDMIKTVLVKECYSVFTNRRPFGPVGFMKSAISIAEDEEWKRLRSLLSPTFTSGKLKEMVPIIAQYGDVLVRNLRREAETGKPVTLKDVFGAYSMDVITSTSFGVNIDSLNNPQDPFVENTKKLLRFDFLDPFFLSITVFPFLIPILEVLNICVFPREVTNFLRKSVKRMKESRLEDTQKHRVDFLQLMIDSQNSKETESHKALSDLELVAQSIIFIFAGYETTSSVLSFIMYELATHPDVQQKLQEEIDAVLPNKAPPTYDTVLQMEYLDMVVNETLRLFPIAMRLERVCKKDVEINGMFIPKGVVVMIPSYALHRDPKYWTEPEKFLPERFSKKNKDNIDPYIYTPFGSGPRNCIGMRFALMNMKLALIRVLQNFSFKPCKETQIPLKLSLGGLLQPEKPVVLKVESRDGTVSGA
Induced myeloid leukemia cell differentiation protein Mcl-1, sequence (Q07820 whole entry): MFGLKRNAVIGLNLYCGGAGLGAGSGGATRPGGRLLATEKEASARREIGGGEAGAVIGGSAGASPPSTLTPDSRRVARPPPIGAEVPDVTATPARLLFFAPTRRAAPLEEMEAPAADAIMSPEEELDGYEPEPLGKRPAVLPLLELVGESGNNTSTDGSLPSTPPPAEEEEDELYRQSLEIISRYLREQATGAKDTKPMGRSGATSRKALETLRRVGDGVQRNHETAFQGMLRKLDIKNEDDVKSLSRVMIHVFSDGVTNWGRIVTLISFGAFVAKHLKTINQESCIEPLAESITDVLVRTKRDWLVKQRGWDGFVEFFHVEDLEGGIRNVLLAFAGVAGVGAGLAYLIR
5-hydroxytryptamine receptor 2A, sequence (P35363 whole entry): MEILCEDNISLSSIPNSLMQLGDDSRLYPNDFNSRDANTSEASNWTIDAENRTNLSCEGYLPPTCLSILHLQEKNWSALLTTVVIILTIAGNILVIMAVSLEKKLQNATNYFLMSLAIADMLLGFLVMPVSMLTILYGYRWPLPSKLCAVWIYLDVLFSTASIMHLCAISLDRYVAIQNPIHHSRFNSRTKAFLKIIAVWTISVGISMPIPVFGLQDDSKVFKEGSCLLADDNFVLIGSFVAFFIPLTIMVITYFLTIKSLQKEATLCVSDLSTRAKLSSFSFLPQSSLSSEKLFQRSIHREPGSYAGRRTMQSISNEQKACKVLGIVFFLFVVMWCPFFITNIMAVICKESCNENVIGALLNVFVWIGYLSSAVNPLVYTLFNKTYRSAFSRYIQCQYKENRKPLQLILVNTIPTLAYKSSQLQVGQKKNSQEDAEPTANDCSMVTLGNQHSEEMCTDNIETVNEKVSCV
Cytochrome P450 2C19, sequence (P33261 whole entry): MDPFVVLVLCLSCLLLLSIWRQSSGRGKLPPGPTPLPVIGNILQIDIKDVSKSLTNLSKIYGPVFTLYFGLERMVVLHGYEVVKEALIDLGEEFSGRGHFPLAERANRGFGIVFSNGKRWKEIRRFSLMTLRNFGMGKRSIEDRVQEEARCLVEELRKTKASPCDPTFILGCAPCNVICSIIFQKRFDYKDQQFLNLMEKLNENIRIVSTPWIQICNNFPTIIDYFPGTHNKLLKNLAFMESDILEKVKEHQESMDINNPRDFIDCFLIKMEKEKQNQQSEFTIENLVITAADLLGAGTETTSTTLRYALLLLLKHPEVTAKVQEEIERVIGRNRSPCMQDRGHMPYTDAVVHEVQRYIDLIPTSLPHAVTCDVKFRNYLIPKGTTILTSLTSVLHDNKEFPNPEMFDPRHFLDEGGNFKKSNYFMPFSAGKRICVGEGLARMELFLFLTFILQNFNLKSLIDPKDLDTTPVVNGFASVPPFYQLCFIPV
Genome polyprotein, sequence (Q2Q167 whole entry, the tested form may be a part): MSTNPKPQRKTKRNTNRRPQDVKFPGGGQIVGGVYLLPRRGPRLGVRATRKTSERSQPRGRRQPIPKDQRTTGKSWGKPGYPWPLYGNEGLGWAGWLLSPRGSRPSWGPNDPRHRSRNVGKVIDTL

CC(C)C[C@H]1C(=O)N2CCC[C@H]2[C@]2(O)O[C@](NC(=O)C3C=C4c5cccc6[nH]c(Br)c(c56)C[C@H]4N(C)C3)(C(C)C)C(=O)N12 (some centres not stated)
EC50 [1]: 0.0038 µM (active) | EC50 (Mu-type opioid receptor): 92.5 µM (inactive) | CC50 [2]: > 40 µM (active) | IC50 [3]: > 100 µM (active)

O=C(CCN1CCN(c2ccccc2F)CC1)c1ccc(Br)cc1
IC50 [4]: 38.2 µM (active) | EC50 [5]: 7.29 µM (active) | EC50 [6]: 8.84 µM (active)

COc1ccccc1NC(=O)COc1cccc2c1CCNC2=O
IC50 (H9c2): 8.7 µM (active) | CC50 [7]: 39.1 µM (active) | IC50 (cells [8]): 28.8 µM (active)

Cc1cc(C)n2c(SC/C(O)=C(\C#N)c3nc4ccccc4[nH]3)nnc2n1
IC50 (Genome polyprotein): > 49.8 µM (not active) | IC50 [9]: 5.01 µM (active) | IC50 [10]: 1.15 µM (active)

Cc1ccc(-c2cc(C(F)F)n3ncc(C(=O)Nc4c(C)nn(Cc5c(Cl)cccc5Cl)c4C)c3n2)cc1
AC50 (Cytochrome P450 3A4): inconclusive | CC50 (Vero): > 100 µM (active) | AC50 (Cytochrome P450 2C19): 7.94 µM (inconclusive)

CN1CCN(CC(C)(C)NS(=O)(=O)c2ccc(Cl)cc2)CC1
EC50 (cells [11]): 0.203 µM (active) | EC50 [12]: < 0.1 µM (active) | EC50 [13]: > 60 µM (not active)

CCc1cc(C(=O)O)c(NC(=O)c2cc(OC)c(OC)c(OC)c2)s1
IC50 [14]: 29.2 µM (active)

CCOc1ccc(-n2c(Cc3cc(O)nc(O)n3)nnc2SCC(N)=O)cc1
IC50 [15]: > 100 µM (active) | IC50 (Protein Tat): > 100 µM (active)
